In patent US20130158043A1, “PAK INHIBITORS FOR THE TREATMENT OF CANCER” (AFRAXIS, INC., priority 2011, published 2013):

Biological target: T1, p-PAK1(S144) (Rattus norvegicus, UniProt P35465)
T1 construct: endogenous in cells; host or cells: RT4-D6P2T
Assay: In vitro p-PAK1(S144) cellular HTRF assay
Type: cell-based
Settings: cell line RT4-D6P2T, read-out: pPAK1(S144) IC50
Description: Compounds for treatment of cancer are subject to in vitro cellular HTRF assay for p-PAK1(S144). The cell line is RT4-D6P2T. The HTRF assay kits are obtained from Cisbio Bioassays, 135 South Road, Bedford, Mass. 01730, USA.

T1 sequence (P35465 whole entry): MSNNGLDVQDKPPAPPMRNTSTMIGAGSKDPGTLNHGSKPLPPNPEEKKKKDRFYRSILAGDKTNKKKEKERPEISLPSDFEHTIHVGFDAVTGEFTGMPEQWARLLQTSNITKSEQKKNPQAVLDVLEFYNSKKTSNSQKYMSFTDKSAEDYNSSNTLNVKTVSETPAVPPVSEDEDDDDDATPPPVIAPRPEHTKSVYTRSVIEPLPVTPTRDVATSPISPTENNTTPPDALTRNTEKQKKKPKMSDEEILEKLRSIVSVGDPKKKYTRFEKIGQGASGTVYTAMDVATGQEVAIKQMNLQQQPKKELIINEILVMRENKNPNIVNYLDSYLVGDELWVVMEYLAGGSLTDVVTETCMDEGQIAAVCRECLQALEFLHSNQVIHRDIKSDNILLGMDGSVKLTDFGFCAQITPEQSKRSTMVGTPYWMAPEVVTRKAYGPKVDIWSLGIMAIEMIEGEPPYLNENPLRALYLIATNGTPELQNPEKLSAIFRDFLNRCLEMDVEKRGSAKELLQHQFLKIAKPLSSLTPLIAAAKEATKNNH

CN1CCN(c2ccc(Nc3ncc4cc(-c5ccc(-c6cccnc6F)cc5Cl)c(=O)n(C)c4n3)cc2)CC1
IC50: 0.05 to 0.5 µM

CCN1CCN(c2ccc(Nc3ncc4cc(-c5ccc(-c6cccnc6)cc5Cl)c(=O)n(CC)c4n3)cc2F)CC1 [drawing 756]
IC50: 0.05 to 0.5 µM
